Laboratory results taken from ChEMBL document CHEMBL1201862, “PubChem BioAssay data set” (2004).
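Values below derive from 48-hour exposures of cells grown in 96-well plates, with endpoints linearly interpolated between the two concentrations bracketing the appropriate inhibition level. GI50 marks 50% less growth.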 The source made the active and inactive calls. Cut-off read from the data, not from the text of the source: active = GI50 up to about 1.1 µM and inactive = higher.

How the values were obtained:
Assay in all cases: NCI-60 cell line screen, 48 h
COLO 205 = test system: COLO 205
T47D = test system: T47D
ACHN = test system: ACHN
HCT-15 = test system: HCT-15
NCI/ADR-RES = test system: NCI/ADR-RES
OVCAR-3 = test system: OVCAR-3
SK-MEL-2 = test system: SK-MEL-2
SK-MEL-28 = test system: SK-MEL-28
IGROV-1 = test system: IGROV-1
NCI-H522 = test system: NCI-H522
U-251 = test system: U-251
HOP-62 = test system: HOP-62
HCT-116 = test system: HCT-116
A498 = test system: A498
DU-145 = test system: DU-145
SK-MEL-5 = test system: SK-MEL-5
NCI-H460 = test system: NCI-H460
OVCAR-4 = test system: OVCAR-4
HCC 2998 = test system: HCC 2998
TK-10 = test system: TK-10
MCF7 = test system: MCF7
MDA-MB-435 = test system: MDA-MB-435
OVCAR-5 = test system: OVCAR-5
Hs-578T = test system: Hs-578T
HOP-92 = test system: HOP-92
SF-539 = test system: SF-539
NCI-H226 = test system: NCI-H226
KM12 = test system: KM12
SF-268 = test system: SF-268
NCI-H23 = test system: NCI-H23
SF-295 = test system: SF-295
HT-29 = test system: HT-29
HL-60 = test system: HL-60
RPMI-8226 = test system: RPMI-8226
MOLT-4 = test system: MOLT-4
MDA-N = test system: MDA-N
SR = test system: SR
Malme-3M = test system: Malme-3M
SNB-19 = test system: SNB-19
LOX IMVI = test system: LOX IMVI
PC-3 = test system: PC-3
EKVX = test system: EKVX
SK-OV-3 = test system: SK-OV-3
A549 = test system: A549
SN12C = test system: SN12C
SW-620 = test system: SW-620
MDA-MB-231 = test system: MDA-MB-231
UACC-257 = test system: UACC-257
786-0 = test system: 786-0
K562 = test system: K562
UO-31 = test system: UO-31
RXF 393 = test system: RXF 393
UACC-62 = test system: UACC-62
SNB-75 = test system: SNB-75
M14 = test system: M14
OVCAR-8 = test system: OVCAR-8
CCRF-CEM = test system: CCRF-CEM
CAKI-1 = test system: CAKI-1
BT-549 = test system: BT-549

What does the source list for `COC(=O)CC(C)(N[S+]([O-])c1ccc(C)cc1)c1ccccc1` (centres undefined)?
GI50 (COLO 205): > 100 µM (inactive); GI50 (T47D): > 100 µM (inactive); GI50 (ACHN): > 100 µM (inactive); GI50 (HCT-15): > 100 µM; GI50 (NCI/ADR-RES): > 100 µM (inactive); GI50 (OVCAR-3): > 100 µM (inactive); GI50 (SK-MEL-2): > 100 µM (inactive); GI50 (SK-MEL-28): > 100 µM (inactive); GI50 (IGROV-1): > 100 µM (inactive); GI50 (NCI-H522): > 100 µM (inactive); GI50 (U-251): > 100 µM (inactive); GI50 (HOP-62): > 100 µM (inactive); GI50 (HCT-116): > 100 µM (inactive); GI50 (A498): > 100 µM (inactive); GI50 (DU-145): > 100 µM (inactive); GI50 (SK-MEL-5): > 100 µM (inactive); GI50 (NCI-H460): > 100 µM (inactive); GI50 (OVCAR-4): > 100 µM (inactive); GI50 (HCC 2998): > 100 µM (inactive); GI50 (TK-10): > 100 µM (inactive); GI50 (MCF7): > 100 µM (inactive); GI50 (MDA-MB-435): > 100 µM (inactive); GI50 (OVCAR-5): > 100 µM (inactive); GI50 (Hs-578T): > 100 µM (inactive); GI50 (HOP-92): > 100 µM (inactive); GI50 (SF-539): > 100 µM (inactive); GI50 (NCI-H226): > 100 µM (inactive); GI50 (KM12): > 100 µM (inactive); GI50 (SF-268): > 100 µM (inactive); GI50 (NCI-H23): > 100 µM (inactive); GI50 (SF-295): > 100 µM (inactive); GI50 (HT-29): > 100 µM (inactive); GI50 (HL-60): > 100 µM (inactive); GI50 (RPMI-8226): > 100 µM (inactive); GI50 (MOLT-4): > 100 µM (inactive); GI50 (MDA-N): > 100 µM (inactive); GI50 (SR): > 100 µM (inactive); GI50 (Malme-3M): > 100 µM (inactive); GI50 (SNB-19): > 100 µM (inactive); GI50 (LOX IMVI): > 100 µM (inactive); GI50 (PC-3): > 100 µM (inactive); GI50 (EKVX): > 100 µM (inactive); GI50 (SK-OV-3): > 100 µM (inactive); GI50 (A549): > 100 µM (inactive); GI50 (SN12C): > 100 µM (inactive); GI50 (SW-620): > 100 µM (inactive); GI50 (MDA-MB-231): > 100 µM (inactive); GI50 (UACC-257): > 100 µM (inactive); GI50 (786-0): > 100 µM (inactive); GI50 (K562): > 100 µM (inactive); GI50 (UO-31): > 100 µM (inactive); GI50 (RXF 393): > 100 µM (inactive); GI50 (UACC-62): > 100 µM (inactive)

Which GI50 (COLO 205) does the source give for `Cc1ccc(S(=O)(=O)NCCCSCCN)cc1` here?
The GI50 was > 100 µM (inactive).

What about the GI50 (T47D) of the same molecule?
Its GI50 is > 100 µM (inactive).

What about the GI50 (ACHN) of the same molecule?
Its GI50 is > 100 µM (inactive).

And the GI50 (HCT-15)?
The GI50 was over 100 µM.

What about the GI50 (NCI/ADR-RES) of the same molecule?
The GI50 was > 100 µM (inactive).

And the GI50 (OVCAR-3)?
Its GI50 is > 100 µM (inactive).

What about the GI50 (SK-MEL-28) of the same molecule?
The GI50 was > 100 µM (inactive).

And the GI50 (NCI-H522)?
The GI50 was > 100 µM (inactive).

And the GI50 (U-251)?
Its GI50 is > 100 µM (inactive).

And the GI50 (HCT-116)?
The GI50 was > 100 µM (inactive).

What about the GI50 (A498) of the same molecule?
Its GI50 is 4.99 µM (inactive).

What about the GI50 (DU-145) of the same molecule?
The GI50 was > 100 µM (inactive).

What about the GI50 (SK-MEL-5) of the same molecule?
Its GI50 is 22 µM (inactive).

And the GI50 (NCI-H460)?
Its GI50 is > 100 µM (inactive).

What about the GI50 (OVCAR-4) of the same molecule?
The GI50 was > 100 µM (inactive).

And the GI50 (HCC 2998)?
Its GI50 is > 100 µM (inactive).

What about the GI50 (TK-10) of the same molecule?
The GI50 was > 100 µM (inactive).

And the GI50 (SNB-75)?
Its GI50 is > 100 µM (inactive).

And the GI50 (M14)?
Its GI50 is > 100 µM (inactive).

What about the GI50 (MCF7) of the same molecule?
Its GI50 is > 100 µM (inactive).

And the GI50 (MDA-MB-435)?
The GI50 was > 100 µM (inactive).

What about the GI50 (Hs-578T) of the same molecule?
Its GI50 is > 100 µM (inactive).

And the GI50 (HOP-92)?
Its GI50 is > 100 µM (inactive).

And the GI50 (OVCAR-8)?
Its GI50 is > 100 µM (inactive).

And the GI50 (NCI-H226)?
The GI50 was > 100 µM (inactive).

And the GI50 (KM12)?
Its GI50 is > 100 µM (inactive).

And the GI50 (SF-268)?
Its GI50 is > 100 µM (inactive).

And the GI50 (NCI-H23)?
Its GI50 is > 100 µM (inactive).

What about the GI50 (SF-295) of the same molecule?
Its GI50 is > 100 µM (inactive).

What about the GI50 (HT-29) of the same molecule?
The GI50 was > 100 µM (inactive).

What about the GI50 (HL-60) of the same molecule?
The GI50 was > 100 µM (inactive).

What about the GI50 (CCRF-CEM) of the same molecule?
The GI50 was > 100 µM (inactive).

And the GI50 (MOLT-4)?
Its GI50 is > 100 µM (inactive).

What about the GI50 (MDA-N) of the same molecule?
The GI50 was > 100 µM (inactive).

What about the GI50 (SR) of the same molecule?
Its GI50 is > 100 µM (inactive).

What about the GI50 (SNB-19) of the same molecule?
The GI50 was > 100 µM (inactive).

And the GI50 (LOX IMVI)?
Its GI50 is < 0.01 µM (active).

And the GI50 (PC-3)?
The GI50 was > 100 µM (inactive).

What about the GI50 (SK-OV-3) of the same molecule?
Its GI50 is > 100 µM (inactive).

What about the GI50 (A549) of the same molecule?
Its GI50 is > 100 µM (inactive).

And the GI50 (SN12C)?
The GI50 was > 100 µM (inactive).

What about the GI50 (SW-620) of the same molecule?
Its GI50 is > 100 µM (inactive).

What about the GI50 (MDA-MB-231) of the same molecule?
Its GI50 is > 100 µM (inactive).

What about the GI50 (UACC-257) of the same molecule?
The GI50 was > 100 µM (inactive).

And the GI50 (K562)?
The GI50 was > 100 µM (inactive).

And the GI50 (UO-31)?
Its GI50 is > 100 µM (inactive).

What about the GI50 (RXF 393) of the same molecule?
Its GI50 is > 100 µM (inactive).

Which results are given for `CCOC(=O)C1OC(=O)CC1C1(C(=O)OCC)C=CC(=O)O1` (centres undefined)?
GI50 (COLO 205): > 100 µM (inactive); GI50 (ACHN): > 100 µM (inactive); GI50 (HCT-15): > 100 µM; GI50 (NCI/ADR-RES): > 100 µM (inactive); GI50 (OVCAR-3): > 100 µM (inactive); GI50 (SK-MEL-2): > 100 µM (inactive); GI50 (SK-MEL-28): > 100 µM (inactive); GI50 (IGROV-1): > 100 µM (inactive); GI50 (NCI-H522): > 100 µM (inactive); GI50 (U-251): 93.8 µM (inactive); GI50 (HOP-62): > 100 µM (inactive); GI50 (HCT-116): > 100 µM (inactive); GI50 (DU-145): > 100 µM (inactive); GI50 (SK-MEL-5): > 100 µM (inactive); GI50 (NCI-H460): 17.9 µM (inactive); GI50 (OVCAR-4): > 100 µM (inactive); GI50 (HCC 2998): > 100 µM (inactive); GI50 (TK-10): > 100 µM (inactive); GI50 (SNB-75): > 100 µM (inactive); GI50 (M14): > 100 µM (inactive); GI50 (MCF7): > 100 µM (inactive); GI50 (OVCAR-5): > 100 µM (inactive); GI50 (CAKI-1): > 100 µM (inactive); GI50 (HOP-92): > 100 µM (inactive); GI50 (SF-539): > 100 µM (inactive); GI50 (OVCAR-8): > 100 µM (inactive); GI50 (NCI-H226): > 100 µM (inactive); GI50 (KM12): > 100 µM (inactive); GI50 (SF-268): > 100 µM (inactive); GI50 (NCI-H23): > 100 µM (inactive); GI50 (SF-295): > 100 µM (inactive); GI50 (HT-29): > 100 µM (inactive); GI50 (HL-60): 42 µM (inactive); GI50 (RPMI-8226): > 100 µM (inactive); GI50 (CCRF-CEM): 59.7 µM (inactive); GI50 (MOLT-4): > 100 µM (inactive); GI50 (BT-549): > 100 µM (inactive); GI50 (MDA-N): > 100 µM (inactive); GI50 (SR): > 100 µM (inactive); GI50 (Malme-3M): > 100 µM (inactive); GI50 (SNB-19): > 100 µM (inactive); GI50 (LOX IMVI): 14.2 µM (inactive); GI50 (PC-3): > 100 µM (inactive); GI50 (EKVX): > 100 µM (inactive); GI50 (SK-OV-3): > 100 µM (inactive); GI50 (A549): > 100 µM (inactive); GI50 (SN12C): > 100 µM (inactive); GI50 (SW-620): > 100 µM (inactive); GI50 (UACC-257): > 100 µM (inactive); GI50 (786-0): > 100 µM (inactive); GI50 (K562): > 100 µM (inactive); GI50 (UO-31): > 100 µM (inactive); GI50 (RXF 393): > 100 µM (inactive); GI50 (UACC-62): > 100 µM (inactive)
